Experimental data from US20160083733A1, “NOVEL TREATMENT OF METABOLIC DISEASES” (UNIVERSITY OF BREMEN, priority 2013, published 2016).
Each block holds one compound with its values, some of them ahead of it. Where a SMILES comes first, the peptide text is derived from it. Where no end group is shown, it is not given here. The star is where a group is joined. Cbz = O=C(OCc1ccccc1)*

Tests used:
[1] = tested on: PDX1; test: PDX1 protein level, degradation and ubiquitination in HEK293 cells co-transfected with MST1; type: cell-based, mouse
From the text: pCMV-myc-MST1 and kinase-dead (MST1-K59; dnMST1) are described in Yamamoto et al., J. Clin. Invest. 111 (2003), 1463-1474. Mouse pB.RSV.PDX1-GFP is described in Kawamori et al., Diabetes 52 (2003) 2896-2904. pcDNA3 Myr-HA Akt1, HA-Ubiquitin and pCDNA3 Jnk1a1 (apf)(dn-JNK) plasmids were obtained from Addgene (Cambridge, Mass.). Mouse PDX1 mutants (T11, T126, T152, T155, T214 and T231) in pCGIG5 vector were generated by site-directed mutagenesis as described previously (Frogne et al., 7 (2012), e35233). All mutations were verified by sequencing. To make bacterial expression plasmids for PDX1 mutants, the complete mouse PDX1 CDS (wild type and mutants) has been amplified by PCR using a specific set of primers from pCGIG5 plasmids and cloned into a pGEX-6P-1 bacterial expression vector. The rat insulin driven luciferase vector (RIP-Luc) was constructed by subcloning a 700 by fragment containing −660 bp of the rat 2 insulin promoter into a pMCS-Green-Renilla-Luc vector (Thermo Scientific). pCMV-Red firefly Luc vector was obtained from Thermo Scientific.
HEK293 cells were cultured in 10-cm cell culture dishes and transfected with HA-ubiquitin, PDX1 and MST1 expression plasmids for 48 h. For ubiquitination in human islets, 5000 islets per condition were transfected with ubiquitin plasmid. After 24 h, islets were infected with Ad-GFP or Ad-MST1 for 6 h and kept for another 48 h. […] Lysates were immunoprecipitated with PDX1-specific antibody overnight at 4° C. Immunocomplexes were then captured with Protein A Agarose by rotation at 4° C. for 4 h. After extensive washing, immunoprecipitates were boiled in sample buffer and proteins subjected to western blotting with ubiquitin-specific antibody.
HEK293 cells were transfected with PDX1 alone, or together with MST1 expressing-plasmids. Human islets were infected with Ad-GFP (control) or Ad-MST1. At 48 h after post-transfection/infection, cells were treated with 50 μg/ml translation initiation inhibitor cycloheximde (CHX) to the medium at the times indicated and the lysates were subjected to western blotting.

[2] = tested on: MST1; test: MST1 activation and AKT signalling in INS-1E cells and human islets, western blotting; type: cell-based, rat; conditions: for glucose- and cytokine-induced P-MST1, MST1-cleavage and apoptosis: INS-1E cells, 72 h, GLP1 and insulin 100 nM
Description: Islet purity was greater than 95% as judged by dithizone staining (if this degree of purity was not achieved by routine isolation, islets were handpicked). Islets from MST1^−/− mice and their WT littermates were isolated as described previously (Schulthess et al., Cell. Metab. 9 (2009) 125-139). Pancreata were perifused with a Liberase™ (#05401119001, Roche, Mannheim, Germany) solution according to the manufacturer's instructions and digested at 37° C., followed by washing and handpicking Human islets were cultured in complete CMRL-1066 (Invitrogen) medium at 5.5 mM glucose and mouse islets and INS-1E cells at complete RPMI-1640 medium at 11.1 mM glucose and HEK293 cells were cultured in Dulbecco's modified Eagle's medium (DMEM). All media included with glutamate, 1% penicillin-streptomycin and 10% fetal bovine serum (FBS, all PAA). INS-1E medium was supplemented with 10 mM HEPES, 1 mM sodium pyruvate and 50 μM β-mercaptoethanol. Islets and INS-1E were exposed to complex diabetogenic conditions: 22.2-33.3 mM glucose, 0.5 mM palmitic acid, the mixture of 2 ng/ml recombinant human IL-1β (R&D Systems, Minneapolis, Minn.)+1,000 U/ml recombinant human IFN-γ (PeProTech) for 72 h, 100 μM H2O2 for 6 h, 1 mM streptozotocin (STZ) for 8 h or 1 mM thapsigargin for 6 h (all Sigma).
At the end of the incubation periods, islets and INS1E cells were washed in ice-cold PBS and lysed in lysis buffer containing 20 mM Tris acetate, 0.27 M sucrose, 1 mM EDTA, 1 mM EGTA, 50 mM NaF, 1% Triton X-100, 5 mM sodium pyrophosphate and 10 mM β-glycerophosphate. Prior to use, the lysis buffer was supplemented with Protease- and Phosphatase-inhibitors (Pierce, Rockford, Ill., USA). Protein concentrations were determined with the BCA protein assay (Pierce). Equivalent amounts of protein from each treatment group were run on a NuPAGE 4-12% Bis-Tris gel (Invitrogen) and electrically transferred onto PVDF membranes. […] Membrane was developed using a chemiluminescence assay system (Pierce) and analyzed using DocIT®LS image acquisition 6.6a (UVP BioImaging Systems, Upland, Calif., USA).

[3] = tested on: human islets; test: Glucose stimulated insulin secretion (GSIS) in human islets; type: cell-based; conditions: Ad-MST1 72 h
Description: (§1) For acute insulin release in response to glucose, primary human and mouse islets and INS1 cells were washed and pre-incubated (30 min) in Krebs-Ringer bicarbonate buffer (KRB) containing 2.8 mM glucose and 0.5% BSA. KRB was then replaced by KRB 2.8 mM glucose for 1 h (basal), followed by an additional 1 h in KRB 16.7 mM glucose. Insulin content was extracted with 0.18N HCl in 70% ethanol. Insulin was determined using human and mouse insulin ELISA (ALPCO Diagnostics, Salem, N.H.). Secreted insulin was normalized to insulin content.

[4] = tested on: INS-1E cells; test: Glucose stimulated insulin secretion (GSIS) in INS-1E cells; type: cell-based, rat; conditions: Ad-MST1 72 h
Description: as §1

[5] = tested on: PDX1 target genes; test: RT-PCR of PDX1 target genes in INS-1E cells; type: cell-based, rat; conditions: INS-1E cells (FIG. 21 d)
From the text: (§2) Total RNA was isolated from cultured human islets and INS1 cells using TRIzol (Invitrogen), and RT-PCR performed as described previously (Shu et al., Diabetologica 55 (2012), 3296-307). For analysis, the Applied Biosystems StepOne Real-Time PCR system (Applied Biosystems, CA, USA) with TaqMan® Fast Universal PCR Master Mix for TaqMan assays (Applied Biosystems) was used. TaqMan® Gene Expression Assays were used for pdx1 (Hs00426216_m1), SLC2A2 (Hs01096905_m1), GCK (Hs01564555_m1), insulin (Hs02741908_m1), PPIA (Hs99999904_m1) and tubulin (Hs00362387_m1) for human and PDX1 (Rn00755591_m1), SLC2A2 (Rn00563565_m1), GCK (Rn00688285_m1), INS1 (Rn02121433_g1), […] (Rn01774648_g1), BCL2L11 (Hs01083836_m1), PPIA (Rn00690933_m1) and tuba1a (Rn01532518_g1) for rat.

[6] = tested on: PDX1 target genes; test: RT-PCR of PDX1 target genes in human islets; type: cell-based; conditions: human islets (FIG. 15 q)
From the text: as §2

[7] = target: T1, MST1 (Homo sapiens, UniProt Q13043); test: In vitro kinase assay, phosphorylation of PDX1 by recombinant MST1; type: biochemical
T1 construct: purchased Upstate Biotechnology
T1 sequence (Q13043 1-487): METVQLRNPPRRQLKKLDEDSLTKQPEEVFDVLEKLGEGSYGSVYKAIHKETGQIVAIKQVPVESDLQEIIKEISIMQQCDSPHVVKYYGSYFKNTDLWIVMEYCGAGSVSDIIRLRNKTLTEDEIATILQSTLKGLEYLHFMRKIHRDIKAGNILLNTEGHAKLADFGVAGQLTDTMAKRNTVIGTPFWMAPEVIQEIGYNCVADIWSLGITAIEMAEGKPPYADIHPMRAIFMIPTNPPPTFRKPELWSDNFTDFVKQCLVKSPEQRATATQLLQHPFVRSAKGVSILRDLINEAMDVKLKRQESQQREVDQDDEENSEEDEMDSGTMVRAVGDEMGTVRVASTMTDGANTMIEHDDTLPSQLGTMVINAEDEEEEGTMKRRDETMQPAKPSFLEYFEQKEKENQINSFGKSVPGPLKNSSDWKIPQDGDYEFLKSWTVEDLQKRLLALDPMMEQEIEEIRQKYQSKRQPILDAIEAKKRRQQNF
Description: For immunoprecipitation, cells were washed with PBS and lysed in cold buffer containing 20 mM Tris-HCl (pH 7.5), 150 mM NaCl, 0.27 M sucrose, 1 mM EDTA, 1 mM EGTA, 50 mM NaF, 1% NP-40, 5 mM sodium pyrophosphate and 10 mM β-glycerophosphate supplemented with proteinase/phosphatase inhibitors for 30 min on ice. Lysates were centrifuged at 12,000 g for 15 min at 4° C. prior to immunoprecipitation. Immunoprecipitations were carried out with incubating 0.5-1 mg of total lysate with rabbit anti-PDX1 (1:500), rabbit anti-MST1 (1:50), mouse anti-Myc (1:1000) and rabbit anti-GFP (1:1000) antibodies on a rotator at 4° C. overnight. Immunocomplexes were then captured with Protein A Agarose Fast Flow (Millipore) by rotation at 4° C. for 4 h. After five washes with cold lysis buffer, the immunoprecipitates were used for kinase assays or resuspended in sample buffer and separated by NuPAGE 4-12% Bis-Tris gels (Invitrogen).
Purified human active MST1 (Upstate Biotechnology) was incubated with ^32P-ATP (2 μCi, Perkin Elmer Life Sciences), ATP (100 μM) and 1 mM dithiothreitol (DTT) in a kinase buffer containing 40 mM HEPES (pH 7.4), 20 mM MgCl2, 1 mM EDTA and 1 μg of purified recombinant human PDX-1 (Abcam) or bacterially purified GST-PDX1 (WT and mutants) as substrates. After incubation at 30° C. for 30 min, the reaction was stopped by adding loading buffer and proteins were separated on NuPAGE gels and phosphorylation levels visualized either by autoradiography or specific antibody for phospho-PDX1. The total PDX1 was detected with anti-PDX1 antibody.
Expression and induction of recombinant GST proteins were performed as described previously (Tolia et al., Nat. Methods 3 (2006), 55-64). Escherichia coli BL21 cells with various GST-fusion expression plasmids were cultured at 37° C. and expression of recombinant proteins was induced by 0.1 mM final concentration of Isopropyl-β-D-thio-galactoside (IPTG; sigma) for 2.5 h. Cells were lysed using B-PER bacterial protein extraction reagent (Pierce) and purified using Glutathione Spin Columns (Pierce).

[8] = tested on: PDX1; test: Luciferase reporter assay of PDX1 transcriptional activity (rat Ins2-Luc) in HEK293 cells; type: cell-based; conditions: HEK293, 48 h
Description: The transcriptional activity of the PDX1 at promoter level was evaluated using rat Ins2-Luc renilla reporter gene HEK293 cells were transfected with Ins2-Luc renilla, pCMV-firefly, PDX1-WT or PDX1-T11A, alone or together with Myc-MST1 expressing plasmids for 48 h. INS-1E cells transfected with Ins2-Luc renilla and pCMV-firefly plasmids and were infected with Ad-GFP or Ad-MST1 for 48 h. Luciferase activity determined using the Renilla-Firefly Luciferase Dual Assay Kit according to the manufacturer's instructions (Pierce). pCMV-firefly was used as transfection control.

Compound: CC(C)C[C@@H](C=O)NC(=O)[C@H](CC(C)C)NC(=O)[C@H](CC(C)C)NC(=O)OCc1ccccc1 [MG-132, reference compound] (Cbz-Leu-Leu-Leu-aldehyde)
disappearance of PDX1 ([1]; PDX1 overexpressing HEK293 cells with MST1, MG-132 50 μM for 6 h): abolished

Compound: GLP1: Glucagon like-peptide 1 (Sigma), exogenously added mitogen (HAEGTFTSDVSSYLEGQAAKEFIAWLVKGR; ends and bridges not checked; UniProt P01275 98-127, looked up)
glucose- and cytokine-induced P-MST1, MST1-cleavage and apoptosis [2]: inhibited

phosphorylation by recombinant MST1 of PDX1 immunoprecipitated from HEK293 cells ([7]; all PDX1 mutants transfected into HEK293): markedly decreased
MST1-induced phosphorylation at the Thr11 site and overall Thr-phosphorylation ([7]; p-T11 and pan-Threonine antibodies, immunoprecipitated PDX1): markedly reduced
threonine phosphorylation of PDX1-GST fusion proteins by MST1 ([7]; proteins purified from bacteria, pan-phospho threonine antibody): exception
Compound: PDX1-T11A: mutant PDX1 with amino acid Thr11 substituted to alanine, inert to phosphorylation by MST1
MST1-induced impairment in GSIS [3]: normalized
MST1-induced impairment in GSIS [4]: normalized
MST1-induced down regulation of PDX1 target genes [5]: restored
MST1-induced down regulation of PDX1 target genes [6]: restored
MST1-induced rapid degradation of PDX1 in the presence of CHX ([1]; 50 μg/ml CHX): did not occur
PDX1 levels in presence of MST1 ([1]; HEK293 cells, 48 h): does not decrease
PDX1 ubiquitination ([1]; HEK293 cells, HA-ubiquitin, 48 h, MG-132 last 6 h): less
Reduction of PDX1 transcriptional activity by MST1 [8]: not

Compound: insulin: recombinant human insulin
glucose- and cytokine-induced P-MST1, MST1-cleavage and apoptosis [2]: inhibited

Compound: z-DEVD-fmk
stress-induced MST1 cleavage by diabetic stimuli ([2]; human islets and INS-1E cells): JNK and caspase-3 were responsible for stress-induced MST1 cleavage
